Measurements reported in PMC11240139, “Exploring the antitumor potential of novel quinoline derivatives via tubulin polymerization inhibition in breast cancer; design, synthesis and molecular docking” (RSC Advances, 2024).

Key:
Test in all cases: NCI-60 SRB cytotoxicity screen
Format in all cases: cell-based
[1] = test system: HL-60(TB) (leukemia); conditions: Homo sapiens, single dose 10 μM, read-out: growth inhibition (GI%)
[2] = test system: K-562 (leukemia); conditions: Homo sapiens; K-652 [sic], single dose 10 μM; read-out: growth inhibition (GI%)
[3] = test system: MOLT-4 (leukemia); conditions: Homo sapiens; MOLT-4, single dose 10 μM; read-out: growth inhibition (GI%)
[4] = test system: A549/ATCC (non-small cell lung cancer); conditions: Homo sapiens, single dose 10 μM, read-out: growth inhibition (GI%)
[5] = test system: EKVX (non-small cell lung cancer); conditions: Homo sapiens, single dose 10 μM, read-out: growth inhibition (GI%)
[6] = test system: NCI-H23 (non-small cell lung cancer); conditions: Homo sapiens; NCI-H23, single dose 10 μM; read-out: growth inhibition (GI%)
[7] = test system: NCI-H322M (non-small cell lung cancer); conditions: Homo sapiens, single dose 10 μM, read-out: growth inhibition (GI%)
[8] = test system: NCI-H522 (non-small cell lung cancer); conditions: Homo sapiens; NCI-H522, single dose 10 μM; read-out: growth inhibition (GI%)
[9] = test system: COLO 205 (colon cancer); conditions: Homo sapiens; COLO 205, single dose 10 μM; read-out: growth inhibition (GI%)
[10] = test system: HCC-2998 (colon cancer); conditions: Homo sapiens; HCC-2998, single dose 10 μM; read-out: growth inhibition (GI%)
[11] = test system: HCT-116 (colon cancer); conditions: Homo sapiens; HCT-116, single dose 10 μM; read-out: growth inhibition (GI%)
[12] = test system: HCT-15 (colon cancer); conditions: Homo sapiens; HCT-15, single dose 10 μM; read-out: growth inhibition (GI%)
[13] = test system: SW-620 (colon cancer); conditions: Homo sapiens; SW-620, single dose 10 μM; read-out: growth inhibition (GI%)
[14] = test system: SF-268 (CNS cancer); conditions: Homo sapiens; SF-268, single dose 10 μM; read-out: growth inhibition (GI%)
[15] = test system: SF-539 (CNS cancer); conditions: Homo sapiens; SF-539, single dose 10 μM; read-out: growth inhibition (GI%)
[16] = test system: SNB-19 (CNS cancer); conditions: Homo sapiens; SNB-19, single dose 10 μM; read-out: growth inhibition (GI%)
[17] = test system: SNB-75 (CNS cancer); conditions: for inhibition at 10 µM: Homo sapiens, SNB-75, SNB-75, single dose 10 μM, read-out: growth inhibition (GI%)
[18] = test system: U251 (CNS cancer); conditions: Homo sapiens, U-251; U251, single dose 10 μM; read-out: growth inhibition (GI%)
[19] = test system: MALME-3M (melanoma); conditions: Homo sapiens, single dose 10 μM, read-out: growth inhibition (GI%)
[20] = test system: SK-MEL-2 (melanoma); conditions: Homo sapiens; SK-MEL-2, single dose 10 μM; read-out: growth inhibition (GI%)
[21] = test system: UACC-62 (melanoma); conditions: Homo sapiens; UACC-62, single dose 10 μM; read-out: growth inhibition (GI%)
[22] = test system: OVCAR-3 (ovarian cancer); conditions: Homo sapiens; OVCAR-3, single dose 10 μM; read-out: growth inhibition (GI%)
[23] = test system: OVCAR-5 (ovarian cancer); conditions: Homo sapiens; OVCAR-5, single dose 10 μM; read-out: growth inhibition (GI%)
[24] = test system: NCI/ADR-RES (ovarian cancer); conditions: Homo sapiens, single dose 10 μM, read-out: growth inhibition (GI%)
[25] = test system: SK-OV-3 (ovarian cancer); conditions: Homo sapiens; SK-OV-3, single dose 10 μM; read-out: growth inhibition (GI%)
[26] = test system: 786-0 (renal cancer); conditions: Homo sapiens; 786-0, single dose 10 μM; read-out: growth inhibition (GI%)
[27] = test system: ACHN (renal cancer); conditions: Homo sapiens, single dose 10 μM, read-out: growth inhibition (GI%)
[28] = test system: CAKI-1 (renal cancer); conditions: Homo sapiens; CAKI-1, single dose 10 μM; read-out: growth inhibition (GI%)
[29] = test system: RXF 393 (renal cancer); conditions: Homo sapiens; RXF 393, single dose 10 μM; read-out: growth inhibition (GI%)
[30] = test system: TK-10 (renal cancer); conditions: Homo sapiens; TK-10, single dose 10 μM; read-out: growth inhibition (GI%)
[31] = test system: PC-3 (prostate cancer); conditions: PC-3, single dose 10 μM; read-out: growth inhibition (GI%)
[32] = test system: MCF7 (breast cancer); conditions: Homo sapiens; MCF7, single dose 10 μM; read-out: growth inhibition (GI%)
[33] = test system: BT-549 (breast cancer); conditions: Homo sapiens; BT-549, single dose 10 μM; read-out: growth inhibition (GI%)
[34] = test system: SK-MEL-28 (melanoma); conditions: Homo sapiens; SK-MEL-28, single dose 10 μM; read-out: growth inhibition (GI%)

Compound | inhibition at 10 µM [1] [%] | inhibition at 10 µM [2] [%] | inhibition at 10 µM [3] [%] | inhibition at 10 µM [4] [%] | inhibition at 10 µM [5] [%] | inhibition at 10 µM [6] [%] | inhibition at 10 µM [7] [%] | inhibition at 10 µM [8] [%] | inhibition at 10 µM [9] [%] | inhibition at 10 µM [10] [%] | inhibition at 10 µM [11] [%] | inhibition at 10 µM [12] [%] | inhibition at 10 µM [13] [%] | inhibition at 10 µM [14] [%] | inhibition at 10 µM [15] [%] | inhibition at 10 µM [16] [%] | inhibition at 10 µM [17] [%] | inhibition at 10 µM [18] [%] | inhibition at 10 µM [19] [%] | inhibition at 10 µM [20] [%] | also measured
CCc1cccc2cc(C3C=C(c4cc(OC)c(OC)c(OC)c4)NC(=S)N3)c(Cl)nc12 (centres unmarked) [Compound 6c, 4-(2-Chloro-8-ethylquinolin-3-yl)-6-(3,4,5-trimethoxyphenyl)-3,4-dihydropyrimidine-2(1H)-thione] | 41.5 | 44.6 | 67.7 | 26.3 | 37.9 | 25.8 | 18.3 | 50.3 | 24.4 | 26.1 | 41.2 | 30.9 | 13.4 | 42.4 | 30.3 | 23.4 | 23.2 | 26.6 | < 10 | 10.2 | inhibition at 10 µM [21]: 35.5%; inhibition at 10 µM [22]: 14.2%; inhibition at 10 µM [23]: < 10%; inhibition at 10 µM [24]: 34%; inhibition at 10 µM [25]: < 10%; inhibition at 10 µM [26]: 18.2%; inhibition at 10 µM [27]: 24.4%; inhibition at 10 µM [28]: 64.1%; inhibition at 10 µM [29]: 40.6%; inhibition at 10 µM [30]: 12.6%; inhibition at 10 µM [31]: 46.2%; inhibition at 10 µM [32]: 44.3%; inhibition at 10 µM [33]: 10.5%
CCc1cccc2cc(-c3cc(-c4ccc(OC)cc4)[nH]c(=O)c3C#N)c(Cl)nc12 [Compound 4a, 4-(2-Chloro-8-ethylquinolin-3-yl)-6-(4-methoxyphenyl)-2-oxo-1,2-dihydropyridine-3-carbonitrile] | < 10 | 19.9 | 11.9 | < 10 | 12.3 | < 10 | < 10 | 11.9 | < 10 | < 10 | < 10 | < 10 | < 10 | 21.4 | < 10 | < 10 | 54.7 | < 10 | < 10 | < 10 | growth inhibition (GI%) ([17]; SNB-75, single dose 10 μM): 45.69%; inhibition at 10 µM [34]: < 10%; inhibition at 10 µM [21]: < 10%; inhibition at 10 µM [22]: < 10%; inhibition at 10 µM [23]: < 10%; inhibition at 10 µM [24]: < 10%; inhibition at 10 µM [25]: < 10%; inhibition at 10 µM [26]: 11.4%; inhibition at 10 µM [27]: < 10%; inhibition at 10 µM [28]: 34.9%; inhibition at 10 µM [29]: < 10%; inhibition at 10 µM [30]: < 10%; inhibition at 10 µM [31]: < 10%; inhibition at 10 µM [32]: 16%; inhibition at 10 µM [33]: 15.3%
